Results as given in ChEMBL document CHEMBL1649134, “Occurrence of efflux mechanism and cephalosporinase variant in a population of Enterobacter aerogenes and Klebsiella pneumoniae isolates producing extended-spectrum beta-lactamases” (2009).
Values after ≈ are worked out from the molar mass of the structure shown.

Experiments:
[1] = test system: Klebsiella aerogenes; assay: Antimicrobial activity against multidrug resistant Enterobacter aerogenes isolate 1 by broth dilution method; assay type: functional
[2] = test system: Klebsiella aerogenes; assay: Antimicrobial activity against multidrug resistant Enterobacter aerogenes isolate 2 by broth dilution method; assay type: functional
[3] = test system: Klebsiella aerogenes; assay: Antimicrobial activity against multidrug resistant Enterobacter aerogenes isolate 3 by broth dilution method; assay type: functional
[4] = test system: Klebsiella aerogenes; assay: Antimicrobial activity against multidrug resistant Enterobacter aerogenes isolate 4 by broth dilution method; assay type: functional
[5] = test system: Klebsiella aerogenes; assay: Antimicrobial activity against multidrug resistant Enterobacter aerogenes isolate 5 by broth dilution method; assay type: functional
[6] = test system: Klebsiella aerogenes; assay: Antimicrobial activity against multidrug resistant Enterobacter aerogenes isolate 6 by broth dilution method; assay type: functional
[7] = test system: Klebsiella aerogenes; assay: Antimicrobial activity against multidrug resistant Enterobacter aerogenes isolate 7 by broth dilution method; assay type: functional
[8] = test system: Klebsiella aerogenes; assay: Antimicrobial activity against multidrug resistant Enterobacter aerogenes isolate 8 by broth dilution method; assay type: functional
[9] = test system: Klebsiella aerogenes; assay: Antimicrobial activity against multidrug resistant Enterobacter aerogenes isolate 9 by broth dilution method; assay type: functional
[10] = test system: Klebsiella aerogenes; assay: Antimicrobial activity against multidrug resistant Enterobacter aerogenes isolate 10 by broth dilution method; assay type: functional
[11] = test system: Klebsiella aerogenes; assay: Antimicrobial activity against multidrug resistant Enterobacter aerogenes isolate 11 by broth dilution method; assay type: functional
[12] = test system: Klebsiella aerogenes; assay: Antimicrobial activity against multidrug resistant Enterobacter aerogenes isolate 12 by broth dilution method; assay type: functional
[13] = test system: Klebsiella aerogenes; assay: Antimicrobial activity against multidrug resistant Enterobacter aerogenes isolate 13 by broth dilution method; assay type: functional
[14] = test system: Klebsiella aerogenes; assay: Antimicrobial activity against multidrug resistant Enterobacter aerogenes isolate 14 by broth dilution method; assay type: functional
[15] = test system: Klebsiella aerogenes; assay: Antimicrobial activity against multidrug resistant Enterobacter aerogenes isolate 15 by broth dilution method; assay type: functional
[16] = test system: Klebsiella aerogenes; assay: Antimicrobial activity against multidrug resistant Enterobacter aerogenes isolate 16 by broth dilution method; assay type: functional
[17] = test system: Klebsiella aerogenes; assay: Antimicrobial activity against multidrug resistant Enterobacter aerogenes isolate 17 by broth dilution method; assay type: functional
[18] = test system: Klebsiella aerogenes; assay: Antimicrobial activity against multidrug resistant Enterobacter aerogenes isolate 18 by broth dilution method; assay type: functional
[19] = test system: Klebsiella aerogenes; assay: Antimicrobial activity against multidrug resistant Enterobacter aerogenes isolate 19 by broth dilution method; assay type: functional
[20] = test system: Klebsiella aerogenes; assay: Antimicrobial activity against multidrug resistant Enterobacter aerogenes isolate 20 by broth dilution method; assay type: functional
[21] = test system: Klebsiella aerogenes; assay: Antimicrobial activity against multidrug resistant Enterobacter aerogenes isolate 21 by broth dilution method; assay type: functional
[22] = test system: Klebsiella aerogenes; assay: Antimicrobial activity against multidrug resistant Enterobacter aerogenes isolate 22 by broth dilution method; assay type: functional
[23] = test system: Klebsiella aerogenes; assay: Antimicrobial activity against multidrug resistant Enterobacter aerogenes isolate 23 by broth dilution method; assay type: functional
[24] = test system: Klebsiella aerogenes; assay: Antimicrobial activity against multidrug resistant Enterobacter aerogenes isolate 24 by broth dilution method; assay type: functional
[25] = test system: Klebsiella aerogenes; assay: Antimicrobial activity against multidrug resistant Enterobacter aerogenes isolate 25 by broth dilution method; assay type: functional
[26] = test system: Klebsiella aerogenes; assay: Antimicrobial activity against multidrug resistant Enterobacter aerogenes isolate 26 by broth dilution method; assay type: functional
[27] = test system: Klebsiella aerogenes; assay: Antimicrobial activity against multidrug resistant Enterobacter aerogenes isolate 27 by broth dilution method; assay type: functional
[28] = test system: Klebsiella pneumoniae; assay: Antimicrobial activity against multidrug resistant Klebsiella pneumoniae ATCC 11296 by broth dilution method; assay type: functional
[29] = test system: Klebsiella pneumoniae; assay: Antimicrobial activity against multidrug resistant Klebsiella pneumoniae isolate 1 by broth dilution method; assay type: functional
[30] = test system: Klebsiella pneumoniae; assay: Antimicrobial activity against multidrug resistant Klebsiella pneumoniae isolate 2 by broth dilution method; assay type: functional
[31] = test system: Klebsiella pneumoniae; assay: Antimicrobial activity against multidrug resistant Klebsiella pneumoniae isolate 3 by broth dilution method; assay type: functional
[32] = test system: Klebsiella pneumoniae; assay: Antimicrobial activity against multidrug resistant Klebsiella pneumoniae isolate 4 by broth dilution method; assay type: functional
[33] = test system: Klebsiella pneumoniae; assay: Antimicrobial activity against multidrug resistant Klebsiella pneumoniae isolate 5 by broth dilution method; assay type: functional
[34] = test system: Klebsiella pneumoniae; assay: Antimicrobial activity against multidrug resistant Klebsiella pneumoniae isolate 6 by broth dilution method; assay type: functional
[35] = test system: Klebsiella pneumoniae; assay: Antimicrobial activity against multidrug resistant Klebsiella pneumoniae isolate 7 by broth dilution method; assay type: functional
[36] = test system: Klebsiella pneumoniae; assay: Antimicrobial activity against multidrug resistant Klebsiella pneumoniae isolate 8 by broth dilution method; assay type: functional
[37] = test system: Klebsiella pneumoniae; assay: Antimicrobial activity against multidrug resistant Klebsiella pneumoniae isolate 9 by broth dilution method; assay type: functional
[38] = test system: Klebsiella pneumoniae; assay: Antimicrobial activity against multidrug resistant Klebsiella pneumoniae isolate 10 by broth dilution method; assay type: functional
[39] = test system: Klebsiella pneumoniae; assay: Antimicrobial activity against multidrug resistant Klebsiella pneumoniae isolate 11 by broth dilution method; assay type: functional
[40] = test system: Klebsiella pneumoniae; assay: Antimicrobial activity against multidrug resistant Klebsiella pneumoniae isolate 12 by broth dilution method; assay type: functional
[41] = test system: Klebsiella pneumoniae; assay: Antimicrobial activity against multidrug resistant Klebsiella pneumoniae isolate 13 by broth dilution method; assay type: functional
[42] = test system: Klebsiella pneumoniae; assay: Antimicrobial activity against multidrug resistant Klebsiella pneumoniae isolate 14 by broth dilution method; assay type: functional
[43] = test system: Klebsiella pneumoniae; assay: Antimicrobial activity against multidrug resistant Klebsiella pneumoniae isolate 15 by broth dilution method; assay type: functional
[44] = test system: Klebsiella pneumoniae; assay: Antimicrobial activity against multidrug resistant Klebsiella pneumoniae isolate 16 by broth dilution method; assay type: functional
[45] = test system: Klebsiella aerogenes; assay: Antimicrobial activity against multidrug resistant Enterobacter aerogenes ATCC 15038 by broth dilution method; assay type: functional
[46] = test system: Klebsiella aerogenes; assay: Antimicrobial activity against multidrug resistant Enterobacter aerogenes ATCC 15038 harboring pDrive plasmid by broth dilution method; assay type: functional
[47] = test system: Klebsiella aerogenes; assay: Antimicrobial activity against multidrug resistant Enterobacter aerogenes ATCC 15038 harboring pACM204 plasmid by broth dilution method; assay type: functional
[48] = test system: Klebsiella aerogenes; assay: Antimicrobial activity against multidrug resistant Enterobacter aerogenes ATCC 15038 harboring pDrive plasmid expressing ampC gene by broth dilution method; assay type: functional
[49] = test system: Escherichia coli; assay: Antimicrobial activity against multidrug resistant Escherichia coli ATCC 35218 by broth dilution method; assay type: functional
[50] = test system: Escherichia coli; assay: microbe, parasite or virus in culture; settings: DH5[alpha]
Description: Antimicrobial activity against multidrug resistant Escherichia coli DH5[alpha] by broth dilution method

[51] = test system: Escherichia coli; assay: microbe, parasite or virus in culture; settings: DH5[alpha]; remark: listed apart in the source
Description: Antimicrobial activity against multidrug resistant Escherichia coli DH5[alpha] harboring pDrive plasmid by broth dilution method

[52] = test system: Escherichia coli; assay: microbe, parasite or virus in culture; settings: DH5[alpha]; remark: listed apart in the source
Description: Antimicrobial activity against multidrug resistant Escherichia coli DH5[alpha] harboring pDrive plasmid expressing ampC gene by broth dilution method

[53] = test system: Escherichia coli; assay: microbe, parasite or virus in culture; settings: DH5[alpha]; remark: listed apart in the source
Description: Antimicrobial activity against multidrug resistant Escherichia coli DH5[alpha] harboring pACM204 plasmid by broth dilution method

[54] = test system: Escherichia coli; assay: microbe, parasite or virus in culture; settings: ATCC 35218
Description: Antimicrobial activity against multidrug resistant Escherichia coli ATCC 35218 harboring pDrive plasmid by broth dilution method

[55] = test system: Escherichia coli; assay: microbe, parasite or virus in culture; settings: ATCC 35218; remark: listed apart in the source
Description: Antimicrobial activity against multidrug resistant Escherichia coli ATCC 35218 harboring pDrive plasmid expressing ampC gene by broth dilution method

`CO[C@@]1(NC(=O)Cc2cccs2)C(=O)N2C(C(=O)O)=C(COC(N)=O)CS[C@@H]21` [CEFOXITIN] showed an MIC [1] of over 1020 µg/mL, an MIC [2] of over 1020 µg/mL and an MIC [3] of over 1020 µg/mL. It also gave an MIC [4] of over 1020 µg/mL, an MIC [5] of over 1020 µg/mL and an MIC [6] of over 1020 µg/mL. The MIC [7] was over 1020 µg/mL, the MIC [8] was 1020 µg/mL (≈ 2400 µM) and the MIC [9] was over 1020 µg/mL. For the same compound, the MIC [10] was over 1020 µg/mL, the MIC [11] was 512 µg/mL (≈ 1200 µM) and the MIC [12] was over 1020 µg/mL. It also gave an MIC [13] of over 1020 µg/mL, an MIC [14] of over 1020 µg/mL and an MIC [15] of over 1020 µg/mL. For the same compound, the MIC [16] was over 1020 µg/mL, the MIC [17] was over 1020 µg/mL and the MIC [18] was over 1020 µg/mL. The MIC [19] was over 1020 µg/mL, the MIC [20] was over 1020 µg/mL and the MIC [21] was over 1020 µg/mL. It also gave an MIC [22] of over 1020 µg/mL, an MIC [23] of 256 µg/mL (≈ 599 µM) and an MIC [24] of over 1020 µg/mL. It also gave an MIC [25] of over 1020 µg/mL, an MIC [26] of 1020 µg/mL (≈ 2400 µM) and an MIC [27] of over 1020 µg/mL. It also gave an MIC [28] of 8 µg/mL (≈ 18.7 µM), an MIC [29] of 16 µg/mL (≈ 37.4 µM) and an MIC [30] of 16 µg/mL (≈ 37.4 µM). The MIC [31] was 32 µg/mL (≈ 74.9 µM), the MIC [32] was 32 µg/mL (≈ 74.9 µM) and the MIC [33] was 16 µg/mL (≈ 37.4 µM). It also gave an MIC [34] of 16 µg/mL (≈ 37.4 µM), an MIC [35] of 16 µg/mL (≈ 37.4 µM) and an MIC [36] of 8 µg/mL (≈ 18.7 µM). The MIC [37] was 16 µg/mL (≈ 37.4 µM), the MIC [38] was 32 µg/mL (≈ 74.9 µM) and the MIC [39] was 32 µg/mL (≈ 74.9 µM). The MIC [40] was 64 µg/mL (≈ 150 µM), the MIC [41] was 32 µg/mL (≈ 74.9 µM) and the MIC [42] was 64 µg/mL (≈ 150 µM). The MIC [43] was 64 µg/mL (≈ 150 µM), the MIC [44] was 32 µg/mL (≈ 74.9 µM) and the MIC [45] was 128 µg/mL (≈ 299 µM).
For `CC(C)(O/N=C(\C(=O)N[C@@H]1C(=O)N2C(C(=O)[O-])=C(C[n+]3ccccc3)CS[C@H]12)c1csc(N)n1)C(=O)O` [CEFTAZIDIME], the MIC [1] was over 2050 µg/mL, the MIC [2] was over 2050 µg/mL and the MIC [3] was over 2050 µg/mL. It also gave an MIC [4] of over 2050 µg/mL, an MIC [5] of over 2050 µg/mL and an MIC [6] of 256 µg/mL (≈ 468 µM). For the same compound, the MIC [7] was over 2050 µg/mL, the MIC [8] was over 2050 µg/mL and the MIC [9] was over 2050 µg/mL. The MIC [10] was over 2050 µg/mL, the MIC [11] was over 2050 µg/mL and the MIC [12] was over 2050 µg/mL. The MIC [13] was over 2050 µg/mL, the MIC [14] was over 2050 µg/mL and the MIC [15] was over 2050 µg/mL. The MIC [16] was over 2050 µg/mL, the MIC [17] was over 2050 µg/mL and the MIC [18] was 1020 µg/mL (≈ 1870 µM). It also gave an MIC [19] of over 2050 µg/mL, an MIC [20] of over 2050 µg/mL and an MIC [21] of over 2050 µg/mL. It also gave an MIC [22] of over 2050 µg/mL, an MIC [23] of 2050 µg/mL (≈ 3750 µM) and an MIC [24] of over 2050 µg/mL. For the same compound, the MIC [25] was over 2050 µg/mL, the MIC [26] was 1020 µg/mL (≈ 1870 µM) and the MIC [27] was over 2050 µg/mL. For the same compound, the MIC [28] was 0.5 µg/mL (≈ 0.915 µM), the MIC [29] was 2050 µg/mL (≈ 3750 µM) and the MIC [30] was 2050 µg/mL (≈ 3750 µM). For the same compound, the MIC [31] was over 2050 µg/mL, the MIC [32] was over 2050 µg/mL and the MIC [33] was over 2050 µg/mL. For the same compound, the MIC [34] was 32 µg/mL (≈ 58.5 µM), the MIC [35] was over 2050 µg/mL and the MIC [36] was over 2050 µg/mL. The MIC [37] was over 2050 µg/mL, the MIC [38] was over 2050 µg/mL and the MIC [39] was over 2050 µg/mL. The MIC [40] was 16 µg/mL (≈ 29.3 µM), the MIC [41] was 16 µg/mL (≈ 29.3 µM) and the MIC [42] was 16 µg/mL (≈ 29.3 µM). The MIC [43] was over 2050 µg/mL, the MIC [44] was 2050 µg/mL (≈ 3750 µM) and the MIC [45] was 0.25 µg/mL (≈ 0.457 µM). For the same compound, the MIC [46] was 0.5 µg/mL (≈ 0.915 µM), the MIC [47] was 64 µg/mL (≈ 117 µM) and the MIC [48] was 64 µg/mL (≈ 117 µM). For the same compound, the MIC [49] was 0.125 µg/mL (≈ 0.229 µM), the MIC [50] was 2 µg/mL (≈ 3.66 µM) and the MIC [51] was 2 µg/mL (≈ 3.66 µM). It also gave an MIC [52] of 32 µg/mL (≈ 58.5 µM), an MIC [53] of 32 µg/mL (≈ 58.5 µM) and an MIC [54] of 0.5 µg/mL (≈ 0.915 µM). It also gave an MIC [55] of 16 µg/mL (≈ 29.3 µM).
